According to paper PMC12378621, “Benzo-ring modification on Malaria Box hit MMV008138: effects on antimalarial potency and microsomal stability” (RSC Medicinal Chemistry, 2025):
Where “and” joins values, the source holds several entries; their conditions need not be identical. Equal values may be shown once. Entries after “also recorded” stand apart in the source; their conditions may differ.

Experiments:
[1] = tested on: P. falciparum (Dd2 strain); experiment: Metabolic rescue of parasite growth by isopentenyl diphosphate (IPP) supplementation; type: cell-based, Plasmodium falciparum
Procedure: (§1) […]. MMV008138 (1) was used as control. The percentage of growth was normalized to that of untreated control parasites in the presence of 0.1% DMSO. Background determinations were made using uninfected erythrocytes. Two or more independent experiments in duplicate were performed. The EC50 values were calculated with GraphPad Prism 9 (GraphPad Software Ltd.) using nonlinear regression curve fitting with variable slope (four parameters) and represent the average and their standard error of the mean (S.E.M.). To assess whether 20a–e specifically targeted the apicoplast, the recovery of growth in the presence of inhibitor and isopentenyl diphosphate (IPP) was performed as described previously.[8] Briefly, parasites were grown in the presence or absence of 200 μM IPP along with a serial dilution (10 μM to 0.01 μM) or single concentration (10 or 20 μM) of drug. […] All conditions were set in 96-well half area plates using highly synchronous ring-stage parasite cultures (100 μL per well at 1% hematocrit and 1% parasitemia) and incubated for 72 h under normal culture conditions. Parasite growth was measured by the SYBR green I assay.

[2] = tested on: P. falciparum (Dd2 strain); experiment: ABS P. falciparum growth inhibition, SYBR Green I assay, 72 h endpoint; type: cell-based, Plasmodium falciparum; conditions: for EC50: Plasmodium falciparum, DD2, Table 2, enantiopure, SYBR Green I, 72 h endpoint, average ± S.E.M, read-out: Dd2 strain P. falciparum growth inhibition EC50
Procedure: Parasites were maintained in O-positive human erythrocytes (Grifols, Memphis, TN, USA) at 5% hematocrit in RPMI 1640 medium supplemented with 5 g L^−1 Albumax I (Gibco Life Technologies), 2 g L^−1 glucose (Sigma-Aldrich), 2.3 g L^−1 sodium bicarbonate (Sigma-Aldrich), 370 μM hypoxanthine (Sigma-Aldrich), 25 mM HEPES, and 20 mg L^−1 gentamicin (Gibco Life Technologies). The parasites were kept at 37 °C under reduced-oxygen conditions (5% CO2, 5% O2, and 90% N2).
as §1

[3] = tested on: Plasmodium berghei ANKA expressing luciferase (PbGFP-Luccon); experiment: In vivo efficacy in P. berghei-infected mice (luminescence on Day 7)
Procedure: 2. In vivo efficacy studies of 1 (NYU) in P. berghei-infected mice (po and iv) Efficacy of 1 in P. berghei-infected mice was assessed at the Anti-Infectives Core Facility, Department of Microbiology, Grossman School of Medicine, New York University.
A. Oral Administration Protocol
Three groups of five female Swiss Webster mice weighing 25 to 30 g were used for vehicle […]
berghei ANKA expressing luciferase (PbGFP-Luccon) obtained from a donor infected mouse.10 […]
2 to 6 and imaged on day 7.
Figure S1. Dosing and imaging timeline of P. berghei-infected mice. […]
Day 7 as described in the text.
The vehicle for all groups was 0.5% (hydroxypropyl)methyl cellulose, 0.5% Tween-80.
For the surviving mice, o n day 7 after infection, mice were anesthetized by inhalation of isofluorane and injected via i.p. with 150 mg/kg of luciferase substrate dissolved in PBS (D-Luciferin Potassium Salt , Gold Biotechnology ).
Mice were imaged 5 to 10 min after inj ection of luciferin using an IVIS imager (Lumina II In Vivo Imaging System; Perkin -Elmer). The data acquisition and analysis were performed with LivingImage (Xenogen). Accumulated light intensity was measured in each mouse to determine the baseline infection levels before treatment .
(§2) (1 picture or pasted object on this page, not shown here)
B. IV Administration Protocol
One group of four female Swiss Webster mice weighing 25 to 30 g were used for vehicle control, and groups of five mice were used for 1 treatment (IV, 2 x 30 mg/kg/d) and the positive […]
On Day 0, mice were infected via intraperitoneal (i.p.) […]
from a donor infected mouse. 10 As shown below in Figure S2 (and legend), mice were treated […]
Figure S2. Dosing and imaging timeline of P. berghei-infected mice. Vehicle and 1 (30 mpk) treatments were administered IV twice -daily on Days 2-6. […]
administered i .p. once-daily. Mice were imaged on Day 7, as described in the text.
The vehicle for this study was 30%PEG, 40% Captisol (30%w/v solution).
Table S2. Luminescence Data after background subtraction for IV dosing of Vehicle, 1, and IP […]
Table S9. Concentration of 20c vs time in mice. […]
Figure S6. Dosing and imaging timeline of P. berghei-infected mice. […]

in vitro [4] = conditions: male, mouse, microsomes; for % remaining, Replicate 1 / Replicate 2: 1 µM; for remaining at 0.5 min, 1 µM / remaining at 5 min, 1 µM / remaining at 10 min, 1 µM / remaining at 0.25 h, 1 µM / remaining at 20 min, 1 µM / remaining at 0.5 h, 1 µM: % remaining, Replicate 1 / Replicate 2
Procedure: Metabolic stability of 1 was studied in pooled male mouse liver microsomes (final concentration 0.5 mg/mL, 5 mM MgCl 2, 100 mM phosphate buffer). The final concentration of test […]
The mixture was pre-warmed 37°C for 5 min before addition of 50 μL of 10 mM NADPH solution at the final concentration of 1 mM and carried out at 37°C. 50 μL of ultra-pure H2O was used instead of NADPH solution in the […]
negative control. […] Drug […]
concentrations were determined using triple quad LC-MS (Table S5).
as §2

in vivo = conditions: mouse
Procedure: 3. Pharmacokinetics of 1 in mice
Pharmacokinetic analysis of 1 in mice was performed by Pharmaron (Beijing, China). Three mice each (23 ± 1 g) were used for oral (40 mg/kg, gavage, conscious) and for IV (10 mg/kg, lateral tail vein with anesthesia) administration. The vehicle for both routes wa s 20% DMSO, 60% PEG400 and 20% SBE-β-CD (30% w/v) in water. Stock concentrations were 4 mg/mL (both oral and IV respectively), and mice were dosed at 10.0 and 2.5 mL/kg (oral and IV respectively).
Quantitation was performed by triple-quad LC-MS.

in vitro [5] = conditions: female, CD-1, mouse, microsomes, pH 7.4
Procedure: Mouse microsomal stability of 20a, 20c, 20d was first assessed in our laboratory. […]
and coumarin were used as controls . Microsomal stability was assessed by ultra-performance liquid chromatography and high -resolution mass spectrometry […]
MA). Potassium phosphate monobasic, potassium phosphate dibasic, and coumarin were purchased from Sigma-Aldrich (St. Louis, MO). Briefly, compound incubations were carried out by the addition of mouse liver microsomes (0.5 mg/ml) in 0.05 M potassium phosphate buffer (pH 7.4), solution A and B, and preincubated at 37°C for 5 min. Control experiments were also carried out in the absence of NADPH solution A and B. Coumarin reaction was used as positive control. Reactions were terminated by adding acetonitrile. Sample analysis was performed on an IonKey/MS system composed of an ACQUITY UPLC M-Class, the ionKey source, and an iKey BEH C18 130 Å 1.7 µm 150 µm x 50 mm column coupled to a Synapt G2-Si mass spectrometer (Waters Corporation, Milford, MA, USA). Separation was accomplished using a binary gradient system consisting of 0.1% formic acid in water (mobile phase A) and 0.1% formic acid in acetonitrile (mobile phase B). The linear gradient was programmed as follows: 0-3 min 1% B, 3- […]
was 3 µL/min, the injection volume was 3 µL in full loop mode, and the iKey temperature was set at 40°C. MS analyses were performed acquiring in MSE mode from 80 to 1500 m/z in positive electrospray ionization mode with a capillary voltage of 3 kV. Data were collected in two channels all the time: low collision energy (6.0 V), for the molecular ions, and high collision energy (15-40 V), for product ions. The source temperature was set at 110°C. Leucine […]
scan at 20 s intervals. Infusion flow rate for lock mass was 1 μL/min. The microsomal stability was determined using MassLynx software (Waters Corporation, Milford, MA, USA). Relative amounts were calculated by comparing the peak area of each evaluated compound at time 0 minutes to its corresponding area at times 45, 90 and 180 minutes to return a ratio.

[6] = Table S10, 40 mg/kg 1 x daily PO Days 2-6, imaged Day 7
[7] = iv, 10 mg/kg, plasma concentration
[8] = po, 40 mg/kg, plasma concentration

O=C(O)[C@@H]1Cc2c([nH]c3cc(F)ccc23)[C@@H](c2ccc(Cl)cc2Cl)N1 [Compound 20c]
% recovery (200 μM IPP) ([1]; drug at 2.5 μM): 100%@2.5 μM
EC50 [2]: 501 ± 47 nM
reduction of luminescence relative to vehicle control ([3]; 40 mg/kg po Days 2-6, Day 7): did not reduce luminescence
reduction in parasitemia / efficacy ([3]; P. berghei mouse model, oral dosing (20c 5 × 40 mg per kg per day)): no reduction in parasitemia; also recorded: not efficacious
Luminescence after background subtraction AVG [3, 6]: 9.7E+06
Luminescence after background subtraction, individual mice [3, 6]: 6.51E+05 and 2.35E+06 and 3.10E+06 and 4.05E+05 and 1.33E+06
% remaining, Replicate 1 / Replicate 2 (in vitro [4]; 5 min): 105.2%
% remaining, Replicate 1 / Replicate 2 (in vitro [4]; 10 min): 105.5%
% remaining, Replicate 1 / Replicate 2 (in vitro [4]; 0.25 h): 100.5%
% remaining, Replicate 1 / Replicate 2 (in vitro [4]; 20 min): 100.4%
% remaining, Replicate 1 / Replicate 2 (in vitro [4]; 0.5 h): 85.7%
remaining at 0.5 min, 1 µM (in vitro [4]): 100%
remaining at 5 min, 1 µM (in vitro [4]): 90.9%
remaining at 10 min, 1 µM (in vitro [4]): 91.4%
remaining at 0.25 h, 1 µM (in vitro [4]): 84.7%
remaining at 20 min, 1 µM (in vitro [4]): 85.9%
remaining at 0.5 h, 1 µM (in vitro [4]): 95.2%
AUC(0-inf) (in vivo; iv, 10 mg/kg): 49.6 µM·h
AUC(0-t) (in vivo; iv, 10 mg/kg): 48.7 µM·h
C0 (in vivo; iv, 10 mg/kg): 34.5 µM
clearance (in vivo; iv, 10 mg/kg): 8.85 mL/min/kg
tlast (in vivo; iv, 10 mg/kg): 24 h
concentration at 24 h (in vivo; iv, 10 mg/kg, Cmin): 0.1 ± 0.1 µM
concentration at 0.083 h (in vivo; [7]): 33.3 µM
concentration at 0.25 h (in vivo; [7]): 30.9 ± 4 µM
concentration at 0.5 h (in vivo; [7]): 14.4 ± 4.1 µM
concentration at 1 h (in vivo; [7]): 9.7 ± 2 µM
concentration at 2 h (in vivo; [7]): 3.3 ± 1.5 µM
concentration at 4 h (in vivo; [7]): 1.4 ± 0.4 µM
concentration at 8 h (in vivo; [7]): 1.4 ± 0.3 µM
concentration at 24 h (in vivo; [7]): 0.1 ± 0.1 µM
half-life (in vivo; iv, 10 mg/kg, t1/2): 4.96 h
AUC0-inf (in vivo; po, 40 mg/kg): 114 µM·h
AUC(0-inf) (in vivo; po, 40 mg/kg): 114 µM·h
AUC(0-t) (in vivo; po, 40 mg/kg): 110 µM·h
Cmax (in vivo; po, 40 mg/kg): 19.9 ± 8.1 µM
Tmax (in vivo; po, 40 mg/kg): 0.5 h
oral AUC0-inf higher than that of 1 (in vivo; po, 40 mg/kg): 30%
tlast (in vivo; po, 40 mg/kg): 24 h
bioavailability (in vivo; po, 40 mg/kg, % F): 58%
bioavailability (in vivo; po, 40 mg/kg, %F): 57.8%
concentration at 24 h (in vivo; po, 40 mg/kg, Cmin): 0.6 ± 0.6 µM
concentration at 0.25 h (in vivo; [8]): 19.8 ± 8.1 µM
concentration at 0.5 h (in vivo; [8]): 19.9 ± 3.2 µM
concentration at 1 h (in vivo; [8]): 13.9 ± 10.8 µM
concentration at 2 h (in vivo; [8]): 8.8 ± 5.9 µM
concentration at 4 h (in vivo; [8]): 10 ± 3.7 µM
concentration at 8 h (in vivo; [8]): 3.9 ± 0.7 µM
concentration at 24 h (in vivo; [8]): 0.6 ± 0.06 µM
half-life (in vivo; po, 40 mg/kg, t 1/2): 5.2 h
half-life (in vivo; po, 40 mg/kg, t1/2): 5.17 h

O=C(O)[C@@H]1Cc2c([nH]c3cccc(F)c23)[C@@H](c2ccc(Cl)cc2Cl)N1 [Compound 20a]
% recovery (200 μM IPP) ([1]; drug at 2.5 μM): 100%@2.5 μM
half-life (in vitro [5]): ~0.167 h
EC50 [2]: 451 ± 28 nM

O=C(O)[C@@H]1Cc2c([nH]c3c(F)cccc23)[C@@H](c2ccc(Cl)cc2Cl)N1 [Compound 20d]
% recovery (200 μM IPP) ([1]; drug at 10 μM): 100%@10 μM
loss of growth inhibition potency (EC50) relative to 1 ([2]; Dd2 strain): ≤ 3 fold
EC50 [2]: 717 ± 73 nM
% remaining, Replicate 1 / Replicate 2 (in vitro [4]; 5 min): 56.5%
% remaining, Replicate 1 / Replicate 2 (in vitro [4]; 10 min): 41.8%
% remaining, Replicate 1 / Replicate 2 (in vitro [4]; 0.25 h): 31.5%
% remaining, Replicate 1 / Replicate 2 (in vitro [4]; 20 min): 28.2%
% remaining, Replicate 1 / Replicate 2 (in vitro [4]; 0.5 h): 25.1%
remaining at 0.5 min, 1 µM (in vitro [4]): 100%
remaining at 5 min, 1 µM (in vitro [4]): 61.1%
remaining at 10 min, 1 µM (in vitro [4]): 42.6%
remaining at 0.25 h, 1 µM (in vitro [4]): 34.3%
remaining at 20 min, 1 µM (in vitro [4]): 30.3%
remaining at 0.5 h, 1 µM (in vitro [4]): 24.8%
